Laboratory results from PubChem BioAssay (NCI).
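A five-concentration, 48-hour dose response in 96-well plates underlies each endpoint, interpolated linearly between surrounding concentrations. At the TGI there is no net growth.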

How the values were obtained:
Assay in all cases: growth of human tumour cells (NCI), 48 h
786-0 renal = test system: 786-0 renal
ACHN renal = test system: ACHN renal
EKVX NSCLC = test system: EKVX NSCLC
HOP-62 NSCLC = test system: HOP-62 NSCLC
IGROV1 ovarian = test system: IGROV1 ovarian
MCF7 breast = test system: MCF7 breast
NCI-H226 lung = test system: NCI-H226 lung
RXF 393 renal = test system: RXF 393 renal
SNB-75 CNS = test system: SNB-75 CNS
SR leukemia = test system: SR leukemia
UACC-62 melanoma = test system: UACC-62 melanoma

Row | Compound | TGI (786-0 renal) [µM] | TGI (ACHN renal) [µM] | TGI (EKVX NSCLC) [µM] | TGI (HOP-62 NSCLC) [µM] | TGI (IGROV1 ovarian) [µM] | TGI (MCF7 breast) [µM] | TGI (NCI-H226 lung) [µM] | TGI (RXF 393 renal) [µM] | TGI (SNB-75 CNS) [µM] | TGI (SR leukemia) [µM] | TGI (UACC-62 melanoma) [µM]
1 | O=C(CN1CCOCC1)c1ccc2c(c1)oc(=O)n2CCN1CCCCC1 | > 100 | > 100 | > 100 | > 100 | > 100 | > 100 | > 100 | > 100 | 56.2 | > 100 | > 100
2 | O=[N+]([O-])C(=C(\Cl)NCCO)/C(Cl)=C(/Cl)Br | 2.75 | 8.9 | 10.4 | 29 | 10.6 | 2.59 | 17.7 | 5.95 | 9.08 | 5.25 | 4.78
3 | CCOC(=O)C1=CN(Cc2ccccc2)C2ON=C(c3ccc(Cl)cc3)C2C1 (stereo not drawn) | > 69.5 | > 65.2 | > 65.1 | > 67.7 | > 50.5 | > 64.6 | > 74.3 | > 67.6 | > 72.5 | 97.4 | > 69.2
4 | Cc1c(OCc2cccc3ccccc23)ccc2c(=O)cc(S)oc12 | > 100 | > 100 | > 100 | > 100 | > 100 | > 100 | > 100 | > 100 | > 100 | 62.1 | 73.3
5 | COc1ccc(-c2cc(-c3ccncc3)nc(N)c2-c2ccc(F)cc2)cc1 | > 100 | 75.4 | > 100 | > 100 | > 100 | > 100 | > 100 | 68.6 | > 100 | 38.7 | > 100
6 | COc1ccc(/C=C/C(=O)N[C@@H]2C(=O)N3[C@@H]2SC(C)(C)[C@@H]3C(=O)O)cc1OC | > 100 | > 100 | > 100 | > 100 |  | > 100 | > 100 | > 100 | > 100 | > 100 | > 100
7 | CCOC(=O)CCNC(=O)c1cc(C)cc2c1Oc1c(cc(C)cc1C(=O)NCCC(=O)OCC)S2 | > 100 | > 100 | > 100 | > 100 | > 100 | > 100 | > 100 | 58 | 78.9 | > 100 | > 100
8 | CN(C)C=Nc1cccc2c1NSN2 | > 100 | > 100 | > 100 | > 100 | > 100 | > 100 | > 100 | > 100 | > 100 | > 100 | > 100
9 | CCN(CC)CCCNc1c2cc(OC)ccc2nc2cccc([N+](=O)[O-])c12 | 0.464 | 0.306 | 0.446 | 0.412 | 0.387 | 0.22 | 0.51 | 0.23 | 0.354 | 0.061 | 0.359
